Data on one molecule can be found in PMC5218480 (PLoS ONE, 2017).

For this test, the system named is MV-4-11 cells. Put plainly: Gene expression microarray analysis (Affymetrix PrimeView) and GSEA. The arrangement: RFU PODN (11730768_x_at) / Fold change /veh PODN (11730768_x_at) / RFU LINC00158 (11744669_a_at) / Fold change /veh LINC00158 (11744669_a_at) / RFU DUSP10 (11751237_a_at) / Fold change /veh DUSP10 (11751237_a_at) / RFU ID3 (11757404_x_at) / Fold change /veh ID3 (11757404_x_at) / RFU PLEKHG5 (11737974_s_at) / Fold change /veh PLEKHG5 (11737974_s_at) / RFU LRRC4B (11730491_at) / Fold change /veh LRRC4B (11730491_at) / RFU GIMAP4 (11747438_a_at) / Fold change /veh GIMAP4 (11747438_a_at) / RFU KRT8 (11758183_x_at) / Fold change /veh KRT8 (11758183_x_at) / RFU CNN1 (11734310_a_at) / Fold change /veh CNN1 (11734310_a_at) / RFU VPS37D (11726825_at) / Fold change /veh VPS37D (11726825_at) / RFU C10orf10 (11716522_x_at) / Fold change /veh C10orf10 (11716522_x_at) / RFU KIR2DL2 /// KIR2DL4 /// KIR2DL5A /// KIR2DL5B /// KIR2DS1 /// KIR2DS2 /// KIR2DS3 /// KIR2DS4 /// KIR3DL3 /// KIR3DL3 /// KIR3DS1 (11738374_at) / Fold change /veh KIR2DL2 /// KIR2DL4 /// KIR2DL5A /// KIR2DL5B /// KIR2DS1 /// KIR2DS2 /// KIR2DS3 /// KIR2DS4 /// KIR3DL3 /// KIR3DL3 /// KIR3DS1 (11738374_at) / RFU C1QL1 (11718748_at) / Fold change /veh C1QL1 (11718748_at) / RFU TMPRSS4 (11747572_a_at) / Fold change /veh TMPRSS4 (11747572_a_at) / RFU HAMP (11756126_x_at) / Fold change /veh HAMP (11756126_x_at) / RFU RNFT2 (11725882_a_at) / Fold change /veh RNFT2 (11725882_a_at) / RFU NR4A2 (11747474_a_at) / Fold change /veh NR4A2 (11747474_a_at) / RFU ABCC12 (11746883_a_at) / Fold change /veh ABCC12 (11746883_a_at) / RFU TMEM136 (11760407_x_at) / Fold change /veh TMEM136 (11760407_x_at) / RFU CLDN22 /// WWC2 (11732394_at) / Fold change /veh CLDN22 /// WWC2 (11732394_at) / RFU HLA-DPB1 (11760878_x_at) / Fold change /veh HLA-DPB1 (11760878_x_at) / RFU SPINT1 (11716480_a_at) / Fold change /veh SPINT1 (11716480_a_at) / RFU GAP43 (11754022_s_at) / Fold change /veh GAP43 (11754022_s_at) / RFU A4GNT (11735810_at) / Fold change /veh A4GNT (11735810_at) / RFU PRB3 (11715151_x_at) / Fold change /veh PRB3 (11715151_x_at) / RFU TUBB4B (11761932_at) / Fold change /veh TUBB4B (11761932_at) / RFU CAPN14 (11732068_a_at) / Fold change /veh CAPN14 (11732068_a_at) / RFU TMCC2 (11721928_a_at) / Fold change /veh TMCC2 (11721928_a_at) / RFU IRGQ (11745062_a_at) / Fold change /veh IRGQ (11745062_a_at) / RFU FAM174B (11720279_a_at) / Fold change /veh FAM174B (11720279_a_at) / RFU TMPRSS4 (11748680_a_at) / Fold change /veh TMPRSS4 (11748680_a_at) / RFU FAM212B (11763350_a_at) / Fold change /veh FAM212B (11763350_a_at) / RFU PLEKHG5 (11743358_a_at) / Fold change /veh PLEKHG5 (11743358_a_at) / RFU ZSCAN30 (11745921_a_at) / Fold change /veh ZSCAN30 (11745921_a_at) / RFU CMKLR1 (11741424_a_at) / Fold change /veh CMKLR1 (11741424_a_at) / RFU LOC101060620 /// MAPK8IP1 (11723275_at) / Fold change /veh LOC101060620 /// MAPK8IP1 (11723275_at) / RFU SPTSSB (11747773_x_at) / Fold change /veh SPTSSB (11747773_x_at) / RFU PRSS12 (11739890_at) / Fold change /veh PRSS12 (11739890_at) / RFU BIN1 (11741810_x_at) / Fold change /veh BIN1 (11741810_x_at) / RFU WNT11 (11732464_a_at) / Fold change /veh WNT11 (11732464_a_at) / RFU C10orf10 (11716521_a_at) / Fold change /veh C10orf10 (11716521_a_at) / RFU C5orf56 (11738089_at) / Fold change /veh C5orf56 (11738089_at) / RFU CYB561 (11721691_x_at) / Fold change /veh CYB561 (11721691_x_at) / RFU ANKRD19P (11752326_a_at) / Fold change /veh ANKRD19P (11752326_a_at) / RFU OR2T12 /// OR2T33 /// OR2T8 (11738714_s_at) / Fold change /veh OR2T12 /// OR2T33 /// OR2T8 (11738714_s_at) / RFU VCAN (11748164_a_at) / Fold change /veh VCAN (11748164_a_at) / RFU JSRP1 (11732532_at) / Fold change /veh JSRP1 (11732532_at) / RFU KRTAP10-11 (11738290_x_at) / Fold change /veh KRTAP10-11 (11738290_x_at) / RFU MYO3A (11730013_a_at) / Fold change /veh MYO3A (11730013_a_at) / RFU EBF3 (11725865_a_at) / Fold change /veh EBF3 (11725865_a_at) / RFU CAMK2N1 (11719241_x_at) / Fold change /veh CAMK2N1 (11719241_x_at) / RFU C5orf56 (11738088_a_at) / Fold change /veh C5orf56 (11738088_a_at) / RFU OLFML3 (11715873_a_at) / Fold change /veh OLFML3 (11715873_a_at) / RFU LOC100653217 /// NTM (11731650_a_at) / Fold change /veh LOC100653217 /// NTM (11731650_a_at) / RFU MAPK11 (11762145_a_at) / Fold change /veh MAPK11 (11762145_a_at) / RFU FIZ1 (11724087_x_at) / Fold change /veh FIZ1 (11724087_x_at) / RFU OASL (11726364_x_at) / Fold change /veh OASL (11726364_x_at) / RFU SOX15 (11748057_x_at) / Fold change /veh SOX15 (11748057_x_at) / RFU CD79A (11719716_a_at) / Fold change /veh CD79A (11719716_a_at) / RFU HIST1H1D (11736915_at) / Fold change /veh HIST1H1D (11736915_at) / RFU CASKIN2 (11723855_a_at) / Fold change /veh CASKIN2 (11723855_a_at) / RFU LOC730098 (11760151_x_at) / Fold change /veh LOC730098 (11760151_x_at) / RFU OR4N2 (11742367_at) / Fold change /veh OR4N2 (11742367_at) / RFU PRRT2 (11749266_a_at) / Fold change /veh PRRT2 (11749266_a_at) / RFU SNX32 (11753110_a_at) / Fold change /veh SNX32 (11753110_a_at) / RFU CDHR5 (11726645_a_at) / Fold change /veh CDHR5 (11726645_a_at) / RFU RCAN1 (11760418_a_at) / Fold change /veh RCAN1 (11760418_a_at) / RFU FAM167A (11723789_a_at) / Fold change /veh FAM167A (11723789_a_at) / RFU FAM26E (11764081_at) / Fold change /veh FAM26E (11764081_at) / RFU ISYNA1 (11749810_s_at) / Fold change /veh ISYNA1 (11749810_s_at) / RFU ACY1 (11761880_at) / Fold change /veh ACY1 (11761880_at) / RFU 11764098_at / Fold change /veh 11764098_at / RFU SAMD14 (11745864_x_at) / Fold change /veh SAMD14 (11745864_x_at) / RFU NPB (11741838_a_at) / Fold change /veh NPB (11741838_a_at) / RFU TMPRSS6 (11731388_a_at) / Fold change /veh TMPRSS6 (11731388_a_at) / RFU KRTAP10-2 (11738614_at) / Fold change /veh KRTAP10-2 (11738614_at) / RFU ARHGAP8 /// PRR5-ARHGAP8 (11727945_x_at) / Fold change /veh ARHGAP8 /// PRR5-ARHGAP8 (11727945_x_at) / RFU KRTAP5-7 /// NADSYN1 (11734609_at) / Fold change /veh KRTAP5-7 /// NADSYN1 (11734609_at) / RFU RASL12 (11751679_a_at) / Fold change /veh RASL12 (11751679_a_at) / RFU CDKN2B (11736163_a_at) / Fold change /veh CDKN2B (11736163_a_at) / RFU PRF1 (11729649_at) / Fold change /veh PRF1 (11729649_at) / RFU, ZNF638 /// ZNF638-IT1 / Fold change vs veh, ZNF638 /// ZNF638-IT1 / RFU, PANK3 / Fold change vs veh, PANK3 / RFU, SH3YL1 / Fold change vs veh, SH3YL1 / RFU, ZEB2 / Fold change vs veh, ZEB2 / RFU, NRIP1 / Fold change vs veh, NRIP1 / RFU, PTTG1IP / Fold change vs veh, PTTG1IP / RFU, CAPN2 / Fold change vs veh, CAPN2 / RFU, MED14 / Fold change vs veh, MED14 / RFU, SNORA58 / Fold change vs veh, SNORA58 / RFU, C1orf63 / Fold change vs veh, C1orf63 / RFU, LRRFIP1 / Fold change vs veh, LRRFIP1 / RFU, NDUFAF7 / Fold change vs veh, NDUFAF7 / RFU, SLC12A2 / Fold change vs veh, SLC12A2 / RFU, IBTK / Fold change vs veh, IBTK / RFU, ESF1 / Fold change vs veh, ESF1 / Fold change vs veh, TMEM50B / RFU, TAOK1 / Fold change vs veh, TAOK1 / RFU, ACBD3 / Fold change vs veh, ACBD3 / RFU, TMA16 / Fold change vs veh, TMA16 / RFU, RWDD3 / Fold change vs veh, RWDD3 / RFU, BCAT1 / Fold change vs veh, BCAT1 / RFU, EDEM3 / Fold change vs veh, EDEM3 / RFU, TMEM33 / Fold change vs veh, TMEM33 / RFU, WDR75 / Fold change vs veh, WDR75 / RFU, AHCTF1 / Fold change vs veh, AHCTF1 / RFU, TFRC / Fold change vs veh, TFRC / RFU, ZDHHC17 / Fold change vs veh, ZDHHC17 / RFU, NOM1 / Fold change vs veh, NOM1 / RFU, ARL8B / Fold change vs veh, ARL8B / RFU, ZBTB11 / Fold change vs veh, ZBTB11 / RFU, TAMM41 / Fold change vs veh, TAMM41 / RFU, KIAA1704 /// LOC100996395 / Fold change vs veh, KIAA1704 /// LOC100996395 / RFU, ING1 / Fold change vs veh, ING1 / RFU, TRMT61B / Fold change vs veh, TRMT61B / RFU, FUBP3 / Fold change vs veh, FUBP3 / RFU, TP53 / Fold change vs veh, TP53 / RFU, TNKS2 / Fold change vs veh, TNKS2 / RFU, ZFP14 / Fold change vs veh, ZFP14 / RFU, ACTR2 / Fold change vs veh, ACTR2 / RFU, PPP3R1 / Fold change vs veh, PPP3R1 / RFU, PIK3R1 / Fold change vs veh, PIK3R1 / RFU, HNRNPA1 / Fold change vs veh, HNRNPA1 / RFU, RNF170 / Fold change vs veh, RNF170 / RFU, ZNF28 / Fold change vs veh, ZNF28 / RFU, RNGTT / Fold change vs veh, RNGTT / RFU, OGT / Fold change vs veh, OGT / RFU, BRD1 / Fold change vs veh, BRD1 / RFU, MARS / Fold change vs veh, MARS / RFU, ZNF655 / Fold change vs veh, ZNF655 / RFU, FAHD1 / Fold change vs veh, FAHD1 / RFU, BDP1 / Fold change vs veh, BDP1 / RFU, LRRCC1 / Fold change vs veh, LRRCC1 / RFU, ARID1A / Fold change vs veh, ARID1A / RFU, ZNF146 / Fold change vs veh, ZNF146 / RFU, ZNF330 / Fold change vs veh, ZNF330 / RFU, GPN3 / Fold change vs veh, GPN3 / RFU, C9orf123 / Fold change vs veh, C9orf123 / RFU, N4BP2L2 / Fold change vs veh, N4BP2L2 / RFU, ARFIP1 / Fold change vs veh, ARFIP1 / RFU, FAM179B / Fold change vs veh, FAM179B / RFU, BCL10 / Fold change vs veh, BCL10 / RFU, UHRF1BP1L / Fold change vs veh, UHRF1BP1L / RFU, BET1 / Fold change vs veh, BET1 / RFU, CNOT2 / Fold change vs veh, CNOT2 / RFU, ZNF268 / Fold change vs veh, ZNF268 / Fold change vs veh, ZNF507 / RFU, DGCR2 / Fold change vs veh, DGCR2 / RFU, WDSUB1 / Fold change vs veh, WDSUB1 / Fold change vs veh, HSP90B1 /// MIR3652 / RFU, ADSS / Fold change vs veh, ADSS / RFU, GK / Fold change vs veh, GK / RFU, ZNF148 / Fold change vs veh, ZNF148 / RFU, TAF9 / Fold change vs veh, TAF9 / RFU, SLC1A5 / Fold change vs veh, SLC1A5 / RFU, SLMO2 / Fold change vs veh, SLMO2 / RFU, ABCC4 / Fold change vs veh, ABCC4 / RFU, LOC101060439 /// RAP1B / Fold change vs veh, LOC101060439 /// RAP1B / RFU, RFX7 / Fold change vs veh, RFX7 / RFU, GTPBP10 / Fold change vs veh, GTPBP10 / RFU, CNEP1R1 / Fold change vs veh, CNEP1R1 / RFU, BIVM-ERCC5 /// ERCC5 / Fold change vs veh, BIVM-ERCC5 /// ERCC5 / RFU, ILF3 / Fold change vs veh, ILF3 / RFU 11762660_at / Fold change /veh 11762660_at / RFU VCAN (11757783_s_at) / Fold change /veh VCAN (11757783_s_at) / RFU DDX43 (11728927_at) / Fold change /veh DDX43 (11728927_at) / RFU KRT8 (11758188_x_at) / Fold change /veh KRT8 (11758188_x_at) / RFU NKD1 (11759106_at) / Fold change /veh NKD1 (11759106_at) / RFU SRD5A1 (11742802_a_at) / Fold change /veh SRD5A1 (11742802_a_at) / RFU TPSAB1 /// TPSB2 (11721975_s_at) / Fold change /veh TPSAB1 /// TPSB2 (11721975_s_at) / RFU GSTM3 (11746129_a_at) / Fold change /veh GSTM3 (11746129_a_at) / RFU IL23R (11737362_x_at) / Fold change /veh IL23R (11737362_x_at) / RFU TMEM51 (11727254_a_at) / Fold change /veh TMEM51 (11727254_a_at) / RFU PIWIL2 (11732686_x_at) / Fold change /veh PIWIL2 (11732686_x_at) / RFU ORM1 (11744905_x_at) / Fold change /veh ORM1 (11744905_x_at) / RFU CCDC152 (11743942_at) / Fold change /veh CCDC152 (11743942_at) / RFU ECM1 (11717891_a_at) / Fold change /veh ECM1 (11717891_a_at) / RFU IL23R (11748794_a_at) / Fold change /veh IL23R (11748794_a_at) / RFU TNFAIP8L3 (11732012_x_at) / Fold change /veh TNFAIP8L3 (11732012_x_at) / RFU MBOAT4 (11741988_at) / Fold change /veh MBOAT4 (11741988_at) / RFU 11764193_at / Fold change /veh 11764193_at / RFU TMEM53 (11763286_at) / Fold change /veh TMEM53 (11763286_at) / RFU MAGEB2 (11727129_at) / Fold change /veh MAGEB2 (11727129_at) / RFU TMEM200A (11744735_a_at) / Fold change /veh TMEM200A (11744735_a_at) / RFU CCDC152 (11751479_a_at) / Fold change /veh CCDC152 (11751479_a_at) / RFU FAM211A (11726209_a_at) / Fold change /veh FAM211A (11726209_a_at) / RFU RGS16 (11746705_a_at) / Fold change /veh RGS16 (11746705_a_at) / RFU VCAN (11755009_s_at) / Fold change /veh VCAN (11755009_s_at) / RFU RHOB (11743442_s_at) / Fold change /veh RHOB (11743442_s_at) / RFU RGS16 (11720943_a_at) / Fold change /veh RGS16 (11720943_a_at) / RFU RGS16 (11720944_at) / Fold change /veh RGS16 (11720944_at) / RFU, VPS4B / Fold change vs veh, VPS4B / RFU, CREB1 / Fold change vs veh, CREB1 / RFU, DNAJC13 / Fold change vs veh, DNAJC13 / RFU, GNAQ / Fold change vs veh, GNAQ / RFU, CDK5R1 / Fold change vs veh, CDK5R1 / RFU, ZRANB3 / Fold change vs veh, ZRANB3 / RFU, CUL4A / Fold change vs veh, CUL4A / RFU, CCNY / Fold change vs veh, CCNY / RFU, UFL1 / Fold change vs veh, UFL1 / RFU, COG3 / Fold change vs veh, COG3 / RFU, DIAPH2 / Fold change vs veh, DIAPH2 / RFU, SKA2 / Fold change vs veh, SKA2 / RFU, AFF3 / Fold change vs veh, AFF3 / RFU, LMF1 / Fold change vs veh, LMF1 / RFU, IPO11 / Fold change vs veh, IPO11 / RFU, DFFB / Fold change vs veh, DFFB / RFU, FOXP1 / Fold change vs veh, FOXP1 / RFU, CARD8 / Fold change vs veh, CARD8 / RFU, STRN3 / Fold change vs veh, STRN3 / RFU, ADK / Fold change vs veh, ADK / RFU, RASSF2 / Fold change vs veh, RASSF2 / RFU, WIPF1 / Fold change vs veh, WIPF1 / RFU, LARP1B / Fold change vs veh, LARP1B / RFU, RASA1 / Fold change vs veh, RASA1 / RFU, RB1 / Fold change vs veh, RB1 / RFU, PPFIA1 / Fold change vs veh, PPFIA1 / RFU, MAT2A / Fold change vs veh, MAT2A / RFU, CCT5 / Fold change vs veh, CCT5 / RFU, WDR92 / Fold change vs veh, WDR92 / RFU, CUX1 / Fold change vs veh, CUX1 / RFU, TTC7A / Fold change vs veh, TTC7A / RFU, TMEM135 / Fold change vs veh, TMEM135 / RFU, DEPTOR / Fold change vs veh, DEPTOR / RFU, CPM / Fold change vs veh, CPM / RFU, DNAJB6 / Fold change vs veh, DNAJB6 / RFU, CACNA2D3 / Fold change vs veh, CACNA2D3 / RFU, DTX4 / Fold change vs veh, DTX4 / RFU, TFCP2 / Fold change vs veh, TFCP2 / RFU, GMCL1 /// GMCL1P1 / Fold change vs veh, GMCL1 /// GMCL1P1 / RFU, AEBP2 / Fold change vs veh, AEBP2 / RFU, SNHG1 /// SNORD22 /// SNORD25 /// SNORD26 /// SNORD27 /// SNORD28 /// SNORD29 /// SNORD31 / Fold change vs veh, SNHG1 /// SNORD22 /// SNORD25 /// SNORD26 /// SNORD27 /// SNORD28 /// SNORD29 /// SNORD31 / Fold change (Aza/veh), C12orf56 (ProbeSet 11735607_a_at) / Fold change (ACY-1035/veh), C12orf56 (ProbeSet 11735607_a_at) / Fold change (Aza/veh), FGFR1OP (ProbeSet 11751329_s_at) / Fold change (ACY-1035/veh), FGFR1OP (ProbeSet 11751329_s_at) / Fold change (Aza/veh), VPS36 (ProbeSet 11739960_a_at) / Fold change (ACY-1035/veh), VPS36 (ProbeSet 11739960_a_at) / RFU SYPL1 (11715823_x_at) / Fold change /veh SYPL1 (11715823_x_at) / RFU IGFBP7 (11715501_s_at) / Fold change /veh IGFBP7 (11715501_s_at) / RFU REEP3 (11722064_at) / Fold change /veh REEP3 (11722064_at) / RFU IGLL1 (11728026_x_at) / Fold change /veh IGLL1 (11728026_x_at): dose or concentration left out as unconfirmed. Conditions: ProbeSet 11727545_at; LIST B. The test is classed as cell-based, human.

With `Nc1ccc(-c2cccs2)cc1NC(=O)c1ccc2c(c1)cc(C1CC1)n2CCN1CCOCC1` [ACY-1035], the “RFU, PANK3” value was determined as 81.04 RFU.
